Test results taken from paper PMC10017027, “Design and Synthesis of Novel HIV-1 NNRTIs with Bicyclic Cores and with Improved Physicochemical Properties” (Journal of Medicinal Chemistry, 2023).
Values after ≈ are worked out from the molar mass of the structure shown. Read-outs that look alike come from different tables or passages of the source.

Key:
[1] = in vitro; format: cell-based; settings: human
Description: The prepared compounds were tested for their anti-HIV-1 activity (Table 1). A viral cytopathic effect assay in MT-4 cells with HIV-1 IIIB virus was used to determine compound potency (EC50, 50% cell viability) in protecting virus induced cell killing. Compound cytotoxicity was assessed in MT-4 cells in the absence of virus (CC50, 50% cytotoxicity). […] ETV contains bromo and amino substitutions on the DAPY core. […] Likely, with the smaller cyano arm I in 1, 3, and 5, the cores could be further elaborated to optimize the compound position in the pocket and to improve potency.
Compounds were tested in a high-throughput 384-well assay format for their ability to inhibit the virus replication-induced cytopathic effect in MT-4 cell cultures acutely infected with HIV-1 (IIIB strain), HXB2, HXB2-K103N, and HXB2-Y181C. Compounds were serially diluted (1:3) in DMSO on 384-well polypropylene plates and further diluted 200-fold into complete RPMI media (10% FBS, 1% P/S) using Biotek Micro Flow and an Agilent ECHO acoustic dispenser. Each plate contained up to eight test compounds, with negative (no drug control) and 5 μM AZT positive controls. MT-4 cells were further diluted in complete RPMI media and added to each plate using a Micro-Flo dispenser. After five days of incubation in a humidified and temperature-controlled incubator (37 °C), Cell Titer Glo (Promega) was added to the assay plates to quantify the amount of […]. EC50 and CC50 values were defined as the compound concentration that causes a 50% decrease in luminescence signal and were calculated using a sigmoidal dose-response model to generate curve fits.

[2] = Solubility assessment, shake-flask method; format: physicochemical; settings: for solubility: shake-flask
Description: Compound solubility was measured at Analiza (Cleveland, OH) by the standard shake-flask method at pH 1.2 and 7.4 and quantitated by HPLC-UV.

[3] = MDCK permeability assay (A to B); format: in vitro ADME, Canine; settings: dog, MDCK
Source text: Compounds were further tested in a Madin–Darby Canine Kidney (MDCK) assay to evaluate their potential for oral absorption. […] Additionally, there was no trend for better permeability when comparing arm I versus arm II when matched with the same core. The size of the B ring had the greatest influence on Papp with the trend being five-membered > six-membered > seven-membered rings (Table 1).
cMdr1-KO cells were maintained in Dulbecco’s modified Eagle’s medium (DMEM) with sodium pyruvate and GlutaMax, supplemented with 1% Pen/Strep and 10% fetal bovine serum in an incubator set at 37 °C, 90% humidity, and 5% CO2. MDCKII- cMdr1-KO cells were grown to confluence over 3 days on 96-well PET plates with 1 μm pore size, polyester membrane (Corning 3392). Experiments were run using HBSS donor buffer from Invitrogen containing an additional 10 mM HEPES, 15 mM glucose, and 0.1% BSA adjusted to pH 7.4. The receiver well had HBSS buffer supplemented with 1% BSA, 10 mM HEPES, 15 mM glucose, and the pH was adjusted to 7.4. TEER values were read to test membrane integrity at the beginning of the assay. The experiment was started by the addition of dosing solutions containing test compounds. Samples were taken from the donor compartment at 0/120 min and from the receiver compartment at 120 min. Each compound was tested in two separate replicate wells. All samples were immediately collected in a 72:8:20 MeCN/MeOH:H2O mix to precipitate protein and stabilize the test compounds. Cells were dosed on the apical side to determine forward (A to B) permeability. To test for non-specific binding and compound instability, the total amount of drug was quantified at the end of the experiment and compared to the material present in the original dosing solution as a percentage of recovery. Samples were analyzed by RF-QToF.

[4] = Predicted clearance in human liver microsomes; format: in vitro ADME; settings: pH 7.4, 1 μM compound, read-out: HLM CLint, pred (converted)
Description: Next, microsome stability was profiled in purified human liver microsomes (HLM).
Metabolic stability of compounds was assessed using HLM (Corning cat. 457117).[52] In this assay, 10 nL compounds at a concentration of 1 mM in 100% DMSO are dispensed into 384-well polypropylene plates using the Echo 550 acoustic liquid dispenser (Labcyte). Each plate contains 384 wells with a single test compound in each well.
A solution of HLM at 2 mg/mL in 100 mM K2HPO4/KH2PO4 pH 7.4 with 0.0225 mg/mL Alamethicin from Trichoderma viride (Sigma-Aldrich cat. A4665-10MG) was incubated on ice for 15 min. 5 μL of this solution was added to individual wells following 15 min incubation at room temperature; and supplemented with 5 μL NADPH Regenerating Solution of cofactors (Corning Gentest UGT Reaction Mix solutions A and B, cat. 451200 and 451220) containing 100 mM K2HPO4/KH2PO4 pH 7.4, 2.6 mM NADP^+, 6.6 mM glucose-6-phosphate, 6.6 mM MgCl2, 0.8 U/mL glucose-6-phosphate dehydrogenase, 0.1 mM sodium citrate, and 6.8 mM uridine diphosphate-glucuronic acid. The final concentration of analyte compounds at the beginning of the reactions was 1 μM. The reactions were incubated at 37 °C, and time points of 0, 5, 15, 30, 40, 50, 60, and 70 min were collected for further analysis. Background data were collected using reactions without analyte compounds.
Upon collection of the reaction time points, samples were quenched at the set time points with 30 μL of a solution of 72% acetonitrile, 8% methanol, 0.1% formic acid, 19.9% water, and labetalol as an internal standard (IS) at a concentration of 650 nM. Reaction plates were span in a centrifuge at a speed of 4000 rcf for 30 min and 4 °C, following a dilution of the 10 μL quenched reaction into 40 μL de-ionized water, yielding assay plates.
Samples were analyzed by a solid-phase extraction coupled with a quadrupole time-of-flight mass spectrometer, using an Agilent QToF 6530 RapidFire 360 system with C4 type A solid state cartridges. Analysis was performed in either positive or negative ionization modes. Mobile phases contained 0.1% formic acid in water for loading analytes onto solid state extraction cartridges, and 0.1% formic acid in acetonitrile for elution into the mass spectrometer in positive ionization mode, or 0.1% acetic acid in water for loading and 0.1% acetic acid in acetonitrile for extraction in negative ionization mode. Peak-area ratios of integrated counts for individual compounds to IS were plotted as a semi-logarithmic chart of log versus time. Initial, linear portion of decay was fitted to a linear regression equation to derive the half-time of a compound decay.
Pharmacological parameters for an analyte compound metabolism were calculated using the equations described in Table S2.
Table S2. Pharmacological parameters for an analyte compound metabolism were
calculated using the following equations:
Intrinsic Clearance (in Cl = ln 2
int, in vitro T1/2 ∗ Conc
Intrinsic Clearance Cl = Clint, in vitro ∗ Liver Mass ∗ Yield
Predicted Hepatic Cl = Clint ∗ QH
QH (Hepatic Blood Flow) = 1.3 L/hr/kg

## Cc1cc(C#N)cc(C)c1N1CC(=O)Nc2cnc(Nc3ccc(C#N)cc3)nc21 [Compound 3, 4-(2-((4-Cyanophenyl)amino)-6-oxo-6,7-dihydropteridin-8(5H)-yl)-3,5-dimethylbenzonitrile]
[1]
  CC50 at 5 days: > 50 µM
[2]; HCl, pH 1.2, supplement CSV, read-out: HCl sol
  solubility thermodynamic: > 100 µM
[2]; HCl, pH 1.2, read-out: solubility HCl
  solubility: > 100 µM
[2]; phosphate-buffered saline, pH 7.4, read-out: solubility PBS
  solubility: 2.3 µM (≈ 0.909 µg/mL)
[2]; preliminary data, in words
  aqueous solubility: significantly improved
[2]; supplement CSV
  PBS sol: 2.3 µM
[3]; supplement CSV
  Papp A→B at 120 min: 4.1 ×10⁻⁶ cm/s
[3]; apparent permeability coefficient, A to B, pH 7.4
  Papp A→B at 120 min: 4.1 ×10⁻⁶ cm/s
[4]
  CLint scaled at 1.167 h, 1 µM: 18.3 mL/min/kg
